How the values were obtained:
[1] = human, in vivo
From the text: In a drug-drug interaction clinical pharmacology study the effects of the GLP-1 receptor agonist exenatide on the pharmacokinetics of bexagliflozin were studied in a randomized crossover study. It is known that GLP-1 receptor agonists retard gastric emptying and because the bexagliflozin dosage form has a gastroretentive mechanism, the possibility that the retardation would adversely affect bexagliflozin delivery was considered important to address (see e.g., Guideline on the pharmacokinetic and clinical evaluation of modified release dosage forms (EMA/CPMP/EWP/280/96 Corr1) section 5.1.4.2.). In the study, participants were assigned to either receive bexagliflozin alone first, or combined treatment with bexagliflozin and exenatide first. Each group received both treatments alternately, in a crossover fashion (two-period, two-treatment crossover design), with the two treatment periods separated by a 7-day washout period. […] Although the endpoints of the confidence intervals fell outside of the range 80-125%, indicating an interaction leading to a change in exposure when bexagliflozin was administered following exenatide, the effect of exenatide on bexagliflozin pharmacokinetics was not so large as to jeopardize patient safety or to provoke a recommendation for a change in prescribing pattern. […] Absorption was delayed when bexagliflozin was administered 30 minutes after exenatide injection, with a median Tmax of 5.00 hours post-dose compared to 2.00 hours post-dose following administration of bexagliflozin alone.

P-gp = P-gp (Homo sapiens, UniProt P08183); test: P-gp substrate observation; assay type: in vitro ADME
Chain of P-gp (P08183 whole entry): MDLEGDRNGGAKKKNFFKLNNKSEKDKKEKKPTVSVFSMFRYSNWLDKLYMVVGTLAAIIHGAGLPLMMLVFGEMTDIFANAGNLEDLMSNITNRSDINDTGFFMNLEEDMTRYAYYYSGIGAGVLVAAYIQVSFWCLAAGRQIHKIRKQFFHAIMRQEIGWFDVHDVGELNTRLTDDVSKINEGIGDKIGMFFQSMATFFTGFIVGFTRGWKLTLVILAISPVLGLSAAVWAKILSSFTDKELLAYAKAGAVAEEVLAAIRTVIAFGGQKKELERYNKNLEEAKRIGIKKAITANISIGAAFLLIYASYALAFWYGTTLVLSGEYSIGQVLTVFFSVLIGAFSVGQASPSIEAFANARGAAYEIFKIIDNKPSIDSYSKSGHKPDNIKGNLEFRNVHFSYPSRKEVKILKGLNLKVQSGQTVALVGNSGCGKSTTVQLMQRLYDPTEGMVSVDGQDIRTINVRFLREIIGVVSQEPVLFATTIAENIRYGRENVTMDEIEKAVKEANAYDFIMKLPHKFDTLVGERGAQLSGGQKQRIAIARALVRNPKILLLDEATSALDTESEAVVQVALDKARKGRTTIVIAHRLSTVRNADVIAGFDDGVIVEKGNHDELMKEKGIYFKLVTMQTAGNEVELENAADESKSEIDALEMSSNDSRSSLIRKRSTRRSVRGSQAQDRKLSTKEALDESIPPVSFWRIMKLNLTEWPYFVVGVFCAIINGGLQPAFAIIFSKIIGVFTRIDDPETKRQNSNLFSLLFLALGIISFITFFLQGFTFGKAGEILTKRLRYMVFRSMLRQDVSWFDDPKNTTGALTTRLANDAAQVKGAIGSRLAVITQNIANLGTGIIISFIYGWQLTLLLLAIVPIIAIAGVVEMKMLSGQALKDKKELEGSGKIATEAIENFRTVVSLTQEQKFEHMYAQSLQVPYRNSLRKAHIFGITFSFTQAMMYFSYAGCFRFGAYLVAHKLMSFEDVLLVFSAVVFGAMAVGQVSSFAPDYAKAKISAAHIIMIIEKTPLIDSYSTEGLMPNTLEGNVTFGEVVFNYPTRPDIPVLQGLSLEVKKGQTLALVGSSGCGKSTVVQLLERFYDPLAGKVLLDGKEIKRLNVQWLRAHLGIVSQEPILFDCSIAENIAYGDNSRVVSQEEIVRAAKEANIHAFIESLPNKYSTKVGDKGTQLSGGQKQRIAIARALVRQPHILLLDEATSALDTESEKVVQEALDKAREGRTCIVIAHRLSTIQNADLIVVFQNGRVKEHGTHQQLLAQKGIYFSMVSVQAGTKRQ
From the text: Because P-gp expression increases with distance along the small intestine, absorption is likely greater in the duodenum than the ileum, and quantitative mass balance studies using [^14C]-bexagliflozin have shown that colonic absorption is minimal (Zhang et al. Xenobiotica. 2019 Aug. 27:1-11. doi: 10.1080/00498254.2019.1654634). Because of the potential practical incompatibility of using an extended release tablet while aiming for most drug release to occur high in the small intestine, tablets of the invention advantageously include an adaptation that can help to retain them in the stomach. A large part of the extended release of bexagliflozin can thus occur in the stomach, permitting absorption of the drug to occur at the desired location in the small intestine, thereby providing an advantageous pharmacokinetic profile.

[2] = quantitative mass balance studies using [^14C]-bexagliflozin; cited from earlier work

- intra-subject variability for AUC0-t and AUC0-∞ [1]: < 22%
- intra-subject variability for Cmax [1]: approximately 32%
- ratio of geometric least square means for AUC0-t, with exenatide to alone [1]: 147.50%
- ratio of geometric least square means for AUC0-∞, with exenatide to alone [1]: 137.56%
- ratio of geometric least square means for Cmax, with exenatide to alone [1]: 125.27%
- increase of AUC0-t compared to bexagliflozin alone ([1]; sc): approximately 48%
- increase of AUC0-∞ compared to bexagliflozin alone ([1]; sc): ~38%
- increase of Cmax compared to bexagliflozin alone ([1]; sc): ~25%
- P-gp substrate status (P-gp): P-gp substrate
SMILES: OC[C@H]1O[C@@H](c2ccc(Cl)c(Cc3ccc(OCCOC4CC4)cc3)c2)[C@H](O)[C@@H](O)[C@@H]1O [bexagliflozin, (2S,3R,4R,5S,6R)-2-(4-chloro-3-(4-(2-cyclopropoxyethoxy)benzyl)phenyl)-6-(hydroxymethyl)tetrahydro-2H-pyran-3,4,5-triol]
- colonic absorption [2]: minimal
